Patent publication US20210284615A1, “VORTIOXETINE ANALOGUE AND USE AND PREPARATION THEREOF” (priority 2016, published 2021)
Several values for one entry are separate records, joined by “and”; a condition that tells them apart may be missing. Equal values may be shown once. Read-outs that look alike come from different tables or passages of the source.

Experiments:
[1] = tested on: 5-HTP induced head-twitch model; experiment: Head-twitch test in mice (5-HTP induced); type: in vivo, KM mice; details: 20 mg/kg intraperitoneal injection, then 200 mg/kg 5-HTP, within 0-10 min
Method: KM mice (male, 18-22 g, Experimental Animal Center, Chongqing Medical University) were randomly divided into 6 mice per group. According to the below table, the animals in each experiment group were administrated a solution of corresponding agent, and then 200 mg/kg 5-HTP (5-hydroxytryptophan). The effects of vortioxetine and Compound 3 on the frequency of head-twitch of mice within 0-10 min were determinate (see [i]Brit. J. Pharmacol. (1963), 20, 106-120 for detailed experiment methods).

[2] = Determination of lipid-water partition coefficient; type: physicochemical
Method: Vortioxetine hydrobromide (6 mg) and Compound 3 (6 mg) were dissolved respectively in a mixed solution composed of a pH 7.4 of phosphate buffer (3 ml) and n-octyl alcohol (3 ml), and the mixture was allowed to stand for 3 hours at 37° C. The concentration of each compound in water phase and oil phase was respectively determined, and calculated by logP=[…]log (Coil/Cwater). The results are as follows: logPvortioxetine=2.1; logPcompound 3=2.7.

[3] = Test of blood drug level in rats; type: in vivo, SD rats; details: for Blood drug level: intragastric, Vortioxetine 20 mg/kg (rats A1-A4), Compound 3 22.8 mg/kg (rats B1-B4), individual rats, in ng/mL (unit assumed)
Method: SD rats (male, 180-220 g, Experimental Animal Center, Chongqing Medical University) were randomly divided into groups with 4 rats per group. Food was prohibited, but not water, for 8 hours before administration.
Blood samples were collected from the orbital venous plexus at 0, 1, 2, 4, 6, 8 h after administration, wherein at least 0.3 ml was taken at each time point, and heparin was used for anticoagulant. The obtained whole blood (200 μl) was added to acetonitrile (800 LA, vortexed and shaken for 1 min, and then centrifuged for 10 min at 12000 rpm. The supernatant was taken and kept at −20° C., and the blood drug level of the supernatant was determined by LC/MS/MS. The data for each animal in groups are as follows: […]

KM mice = experiment: Forced swimming test in mice; type: in vivo; details: 20 mg/kg oral gastric lavage, 1 hour after administration, last 4 min of 6 min swim
Method: KM mice (male, 38-42 g, Experimental Animal Center, Chongqing Medical University) were randomly divided into groups with 6 mice per group. After fasted for 4 h, the mice were placed in a glass cylinder with a diameter of 18 cm, height of 40 cm, water depth of 15 cm (water temperature 25° C.) to swim for 6 min, then dried with a warm air blower. The animals in each experiment group were administrated a solution of corresponding agent (Oral administration of gastric lavage, 20 mg/kg) according to the table below. After 1 hour of administration, the mice were placed in a glass cylinder with a diameter of 18 cm, height of 40 cm, water depth of 15 cm (water temperature 25° C.) to swim for 6 min. The swimming of the mice was recorded within 6 min by a camera system, and the data were automatically collected and analyzed by Noldus software. The quiescent time during swimming was recorded and counted within the last 4 min (for the experiment method, see THE JOURNAL OF PHARMACOLOGY AND EXPERIMENTAL THERAPEUTICS (2012), Vol. 340, No. 3: 666-675).

[4] = human, cited from earlier work
SLC6A4 = target: T1, SLC6A4 (Homo sapiens, UniProt P31645); experiment: [3H]5-hydroxytryptamine (5-HT) reuptake inhibition in CHO cells transfected with pcDNA3.1-SLC6A4-His; type: cell-based; details: 25 nM [3H]5-hydroxytryptamine, 30 min
T1 construct: host or cells: CHO cells (Chinese hamster ovary, Cat #CCL-61), transient transfection with FuGENE HD
T1 sequence (P31645 whole entry): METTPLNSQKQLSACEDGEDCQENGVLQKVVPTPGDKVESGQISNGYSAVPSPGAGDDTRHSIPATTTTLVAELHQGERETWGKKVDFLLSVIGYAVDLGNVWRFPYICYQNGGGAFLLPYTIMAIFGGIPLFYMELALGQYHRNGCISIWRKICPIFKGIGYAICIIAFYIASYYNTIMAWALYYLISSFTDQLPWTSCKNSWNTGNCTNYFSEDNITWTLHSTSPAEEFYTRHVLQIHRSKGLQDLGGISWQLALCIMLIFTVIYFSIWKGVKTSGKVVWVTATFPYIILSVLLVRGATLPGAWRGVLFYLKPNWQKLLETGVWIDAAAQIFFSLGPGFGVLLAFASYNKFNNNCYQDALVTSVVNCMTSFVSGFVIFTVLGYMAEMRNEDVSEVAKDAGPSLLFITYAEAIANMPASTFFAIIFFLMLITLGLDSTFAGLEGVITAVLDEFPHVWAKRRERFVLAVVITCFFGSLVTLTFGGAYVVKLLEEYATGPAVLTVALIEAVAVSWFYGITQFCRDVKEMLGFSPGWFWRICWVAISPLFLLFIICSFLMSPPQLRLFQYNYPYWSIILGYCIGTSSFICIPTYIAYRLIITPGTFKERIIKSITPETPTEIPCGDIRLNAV
Method: SLC6A4 gene from plasmid Pcmv6-XL4-SLC6A4 (Origene, Cat #SC119478) was amplified by PCR (polymerase chain reaction), and a HIS tag was added to the C terminal, and then inserted into pcDNA3.1 (−) vector at 5′EcoR1 and 31-lind111 restriction enzyme cutting sites to build pcDNA3.1-SLC6A4-His.
CHO cells in logarithmic growth period (Chinese hamster ovary cells, Institute of Cell Biology, Chinese Academy of Sciences, Cat #CCL-61) were collected and counted. The cells were resuspended in F-12 culture media (Gibco, Cat #11330-032) and inoculated on a 96-well plate with 100 μL (20000 cells/well) per well. It was incubated in 5% CO2 incubator (relative humidity 100%) at 37° C. for 24 h.
The above modified plasmids (0.48 μg) were diluted with Opti-MEM culture medium (25 μL, Gibco, Cat #11058021), and blew gently to mix homogenously. […]
Compound 1 and vortioxetine were respectively diluted to 1 mM with Opti-MEM culture medium, then diluted 10 times per 4 times gradient, and then added to the transfected cell wells by 20 μL/well (the corresponding concentrations were 100 μM-0.0004 μM, in total of 10 concentration points, the concentration ratio between each concentration point was 4, each concentration included 3 parallel wells). […] 50 μL of lysed cell fluid was taken, and 200 μL of scintillation solution was added thereto, and reading was conducted with MicroBeta2. […]

[5] = Test of brain concentration and plasma concentration; type: in vivo, KM mice; details: male, KM, mouse, Compound 1 23.6 mg/kg
Method: KM mice (male, 18-22 g, Experimental Animal Center, Chongqing Medical University) were randomly divided into groups with 6 mice per group. In accordance with the table below, the animals in each group were respectively injected intravenously with equal moles of vortioxetine (20 mg/kg) and Compound 1 (23.6 mg/kg). Samples of blood and brain tissue of the mouse were taken at 1 and 2 hours after injection. The concentrations of vortioxetine and Compound 1 in blood plasma and brain tissue were respectively measured, and the ratios (concentration in brain tissue/concentration in blood plasma) were calculated.

[6] = oral administration; cited from earlier work
[7] = 2 h after oral 20 mg/kg, male Listar Hooded rats; cited from earlier work

In the case of `Br.Cc1cc(C(F)(F)F)ccc1Sc1ccccc1N1CCNCC1` [Compound 3, 1-[2-(2-methyl-4-trifluoromethylphenylthio)phenyl] piperazine hydrobromide], the Number of head-twitch [1] is reported as 45.0 ± 29.0, the logP at 3 h ([2]; pH 7.4) is reported as 2.7 and the Blood drug level ([3]; 0 h, hydrobromide) is reported as 0.815 and 2.195 and 1.62 and 0.975. For the same compound, the Blood drug level ([3]; 1 h, hydrobromide) was 458.925 and 276.675 and 351.38 and 412.775, the Blood drug level ([3]; 2 h, hydrobromide) was 587.71 and 237.72 and 441.03 and 648.63 and the Blood drug level ([3]; 4 h, hydrobromide) was 726.37 and 181.565 and 334.54 and 297.135. For the same compound, the Blood drug level ([3]; 6 h, hydrobromide) was 421.06 and 139.79 and 230.075 and 159.715, the Blood drug level ([3]; 8 h, hydrobromide) was 386.805 and 37.895 and 109.47 and 78.5 and the “blood drug levels compared with equal moles of vortioxetine” value ([3]; oral, all time points) was “higher”. For the same compound, the melting point was 170 to 172 °C and the Quiescent time (KM mice) was 107 ± 31 s.

For `Cc1cc(C(=O)O)ccc1Sc1ccccc1N1CCNCC1` [LUAA34443], the “share of LUAA34443 and LUAA34443 glucuronide together” value ([4]; oral 14C-vortioxetine free base 50 mg, one combined value for both metabolites) is given as 44%.

For `Cc1cc(C(F)(F)F)ccc1Sc1ccccc1N1CCNCC1` [Compound 1, 1-[2-(2-methyl-4-trifluoromethylphenylthio)phenyl]piperazine], the melting point was 206 to 208 °C and the IC50 (SLC6A4) was 231 nM.

For `Cc1ccc(Sc2ccccc2N2CCNCC2)c(C)c1` [Vortioxetine], the Kp at 1 h ([5]; brain/plasma, 1 hour after intravenous injection, vortioxetine 20 mg/kg, read-out: Concentration ratio in brain tissue and plasma) was 60.2 ± 8.64, the Kp at 2 h ([5]; brain/plasma, 2 hours after intravenous injection, vortioxetine 20 mg/kg, read-out: Concentration ratio in brain tissue and plasma) was 44.6 ± 13.1 and the concentration at 1 h ([5]; brain, 1 hour after intravenous injection, equal moles: vortioxetine 20 mg/kg, read-out: Concentration in brain tissue) was 15400 ± 1400 ng/g. For the same compound, the concentration at 2 h ([5]; brain, 2 hours after intravenous injection, vortioxetine 20 mg/kg, read-out: Concentration in brain tissue) was 7490 ± 560 ng/g, the concentration at 1 h ([5]; plasma, 1 hour after intravenous injection, vortioxetine 20 mg/kg, read-out: Blood drug level) was 261 ± 53.5 ng/mL and the concentration at 2 h ([5]; plasma, 2 hours after intravenous injection, vortioxetine 20 mg/kg, read-out: Blood drug level) was 167 ± 49.5 ng/mL. The Number of head-twitch [1] was 56 ± 10, the “parent drug share in plasma” value ([4]; 4 hours after oral 14C-vortioxetine free base 50 mg) was “about 8%” and the logP at 3 h ([2]; n-octyl alcohol / pH 7.4 phosphate buffer, pH 7.4 phosphate buffer / n-octyl alcohol, 3 hours at 37° C., read-out: logP (lipid-water partition coefficient)) was 2.1. The bioavailability [6] was “about 75%”, the “distribution concentration in brain” value [7] was 2.77 µg/g and the “distribution concentration in kidney” value [7] was 10.3 µg/g. For the same compound, the “distribution concentration in liver” value [7] was 22.3 µg/g, the “distribution concentration in lung” value [7] was 15.5 µg/g and the Blood drug level ([3]; 0 h) was 0. The Blood drug level ([3]; 1 h) was 48.59 and 163.07 and 183.96 and 256.56, the Blood drug level ([3]; 2 h) was 85.335 and 149.685 and 164.88 and 195.125 and the Blood drug level ([3]; 4 h) was 34.54 and 90.305 and 94.53 and 164.845. For the same compound, the Blood drug level ([3]; 6 h) was 17.095 and 47.74 and 40.91 and 72.6, the Blood drug level ([3]; 8 h) was 7.13 and 6.76 and 23.35 and 26.315 and the Quiescent time (KM mice) was 136 ± 37 s. For the same compound, the IC50 (SLC6A4) was 267 nM.
